According to paper PMC11070402, “New antiproliferative 3-substituted oxindoles inhibiting EGFR/VEGFR-2 and tubulin polymerization” (Molecular Diversity, 2023):
Where “and” joins values, the source holds several entries; their conditions need not be identical. Equal values may be shown once. Read-outs that look alike come from different tables or passages of the source.

How the values were obtained:
[1] = test system: 60 human cancer cell lines; test: NCI one-dose assay against sixty NCI cancer cell lines; assay type: cell-based
Method: (§1) All novel scaffolds 6a–j were carefully selected by the National Cancer Institute (NCI), Bethesda, USA, to elucidate their cytotoxic activity versus 60 human cancer cell lines at 10 µM as a single-dose concentration after a 48 h incubation period.
(§2) National Cancer Institution selected all the synthesized 6a–j (NCI), Bethesda, USA, for in vitro one-dose antitumor assay. The methodology protocol for the NCI anticancer screening was reported in detail elsewhere (http://www.dtp.nci.nih.gov). The anticancer assay was performed in full NCI 60 cell lines extracted from nine tumor cell lines, including leukemia, melanoma, lung, colon, CNS, ovarian, renal, prostate, and breast cancer cell lines.

[2] = test system: SNB-75 cells (CNS cancer cell line); test: NCI one-dose assay, SNB-75; assay type: cell-based; details: Homo sapiens; SNB-75 (CNS Cancer), 10 uM single dose; read-out: Growth inhibition %
Method: as §1, §2

[3] = test system: HOP-92 (non-small cell lung cancer cell line); test: NCI one-dose assay, HOP-92; assay type: cell-based; details: Homo sapiens; HOP-92 (Non-Small Cell Lung Cancer), 10 uM single dose; read-out: Growth inhibition %
Method: as §1, §2

UO-31 = test: NCI one-dose assay, UO-31; assay type: cell-based; details: Homo sapiens; UO-31; 10 µM single dose, 48 h incubation; read-out: cell growth inhibition % (GI %)
Method: as §1, §2

K-562 = test: NCI one-dose assay, K-562; assay type: cell-based; details: Homo sapiens, K562; K-562; 10 µM single dose, 48 h incubation; read-out: cell growth inhibition % (GI %)
Method: as §1, §2

MOLT-4 = test: NCI one-dose assay, MOLT-4; assay type: cell-based; details: Homo sapiens; MOLT-4; 10 µM single dose, 48 h incubation; read-out: cell growth inhibition % (GI %)
Method: as §1, §2

SR = test: NCI one-dose assay, SR; assay type: cell-based; details: Homo sapiens; SR; 10 µM single dose, 48 h incubation; read-out: cell growth inhibition % (GI %)
Method: as §1, §2

A549/ATCC = test: NCI one-dose assay, A549/ATCC; assay type: cell-based; details: Homo sapiens, 10 µM single dose, 48 h incubation, read-out: cell growth inhibition % (GI %)
Method: as §1, §2

NCI-H23 = test: NCI one-dose assay, NCI-H23; assay type: cell-based; details: Homo sapiens; NCI-H23; 10 µM single dose, 48 h incubation; read-out: cell growth inhibition % (GI %)
Method: as §1, §2

SK-MEL-5 = test: NCI one-dose assay, SK-MEL-5; assay type: cell-based; details: Homo sapiens; SK-MEL-5; 10 µM single dose, 48 h incubation; read-out: cell growth inhibition % (GI %)
Method: as §1, §2

LOX IMVI = test: NCI one-dose assay, LOX IMVI; assay type: cell-based; details: Homo sapiens; LOX IMVI; 10 µM single dose, 48 h incubation; read-out: cell growth inhibition % (GI %)
Method: as §1, §2

MCF-7 = test: NCI one-dose assay, MCF-7; assay type: cell-based, human; details: MCF-7, 10 µM single dose, 48 h incubation
Method: as §1, §2

T-47D = test: NCI one-dose assay, T-47D; assay type: cell-based; details: Homo sapiens, T47D; T-47D; 10 µM single dose, 48 h incubation; read-out: cell growth inhibition % (GI %)
Method: as §1, §2

[4] = test system: MCF-7 (human breast cancer); test: Cytotoxicity versus MCF-7 cell line (MTT assay); details: MCF7, read-out: MCF-7 (IC50 ± SD, uM)
Method: IC50 values were recorded using the Boltzman sigmoidal concentration–response curve equation using the nonlinear regression fitting models by GraphPad, Prism version 5 (GraphPad Software Inc., La Jolla, CA). MTT assay for MCF-7 cell lines. Cell line cells were obtained from American Type Culture Collection. Cells were cultured using DMEM media (Invitrogen/Life Technologies) supplemented with 10% FBS (Hyclone), 10 ug/ml of insulin (Sigma), and 1% penicillin–streptomycin. All the other chemicals and reagents were purchased from Sigma or Invitrogen. Cells were seeded in plates (cells density 1.2–1.8 × 10,000 cells/well) in a volume of 100 μl full-growth medium + 100 μl of the tested scaffold per well in a 96-well plate for 24 h before the application of the MTT assay protocol as reported, supplementary information.

O=C1Nc2cc(Cl)ccc2C1=Cc1ccc(OCC(=O)c2ccc(Br)cc2)cc1 [Compound 6g, 6-Chloro-3-{4-[2-(4-bromophenyl)-2-oxoethoxy]benzylidene}indolin-2-one]
inhibition at 10 µM ([1]; 786-0 (Renal Cancer), 10 uM single dose, read-out: Growth inhibition %): 15.6%
inhibition at 10 µM ([1]; ACHN (Renal Cancer), 10 uM single dose, read-out: Growth inhibition %): 31.2%
inhibition at 10 µM ([1]; BT-549 (Breast Cancer), 10 uM single dose, read-out: Growth inhibition %): 44.3%
inhibition at 10 µM ([1]; CAKI-1 (Renal Cancer), 10 uM single dose, read-out: Growth inhibition %): 47.6%
inhibition at 10 µM ([1]; CCRF-CEM (Leukemia), 10 uM single dose, read-out: Growth inhibition %): 34.3%
inhibition at 10 µM ([1]; COLO 205 (Colon Cancer), 10 uM single dose, read-out: Growth inhibition %): 44.7%
inhibition at 10 µM ([1]; DU-145 (Prostate Cancer), 10 uM single dose, read-out: Growth inhibition %): 12.4%
inhibition at 10 µM ([1]; EKVX (Non-Small Cell Lung Cancer), 10 uM single dose, read-out: Growth inhibition %): 43.8%
inhibition at 10 µM ([1]; HCC-2998 (Colon Cancer), 10 uM single dose, read-out: Growth inhibition %): 17.5%
inhibition at 10 µM ([1]; HCT-15 (Colon Cancer), 10 uM single dose, read-out: Growth inhibition %): 46.9%
inhibition at 10 µM ([1]; HCT-116 (Colon Cancer), 10 uM single dose, read-out: Growth inhibition %): 42.1%
inhibition at 10 µM ([1]; HL-60(TB) (Leukemia), 10 uM single dose, read-out: Growth inhibition %): 53.8%
inhibition at 10 µM ([1]; HS 578T (Breast Cancer), 10 uM single dose, read-out: Growth inhibition %): 22.4%
inhibition at 10 µM ([1]; HT-29, HT29 (Colon Cancer), 10 uM single dose, read-out: Growth inhibition %): 16.1%
inhibition at 10 µM ([1]; IGROV-1, IGROV1 (Ovarian Cancer), 10 uM single dose, read-out: Growth inhibition %): 34.6%
inhibition at 10 µM ([1]; KM12 (Colon Cancer), 10 uM single dose, read-out: Growth inhibition %): 28.7%
inhibition at 10 µM ([1]; M14 (Melanoma), 10 uM single dose, read-out: Growth inhibition %): 31.1%
inhibition at 10 µM ([1]; MALME-3M (Melanoma), 10 uM single dose, read-out: Growth inhibition %): 12.9%
inhibition at 10 µM ([1]; MDA-MB-231, read-out: Growth inhibition %): 23.4%
inhibition at 10 µM ([1]; MDA-MB-435 (Melanoma), 10 uM single dose, read-out: Growth inhibition %): 24.8%
inhibition at 10 µM ([1]; MDA-MB-468 (Breast Cancer), 10 uM single dose, read-out: Growth inhibition %): 42.3%
inhibition at 10 µM ([1]; NCI-H226 (Non-Small Cell Lung Cancer), 10 uM single dose, read-out: Growth inhibition %): 37.9%
inhibition at 10 µM ([1]; NCI-H322M (Non-Small Cell Lung Cancer), 10 uM single dose, read-out: Growth inhibition %): 18.1%
inhibition at 10 µM ([1]; NCI-H460 (Non-Small Cell Lung Cancer), 10 uM single dose, read-out: Growth inhibition %): 41%
inhibition at 10 µM ([1]; NCI-H522 (Non-Small Cell Lung Cancer), 10 uM single dose, read-out: Growth inhibition %): 49.4%
inhibition at 10 µM ([1]; OVCAR-3 (Ovarian Cancer), 10 uM single dose, read-out: Growth inhibition %): 15.7%
inhibition at 10 µM ([1]; OVCAR-4 (Ovarian Cancer), 10 uM single dose, read-out: Growth inhibition %): 44.5%
inhibition at 10 µM ([1]; OVCAR-5 (Ovarian Cancer), 10 uM single dose, read-out: Growth inhibition %): 13.9%
inhibition at 10 µM ([1]; OVCAR-8 (Ovarian Cancer), 10 uM single dose, read-out: Growth inhibition %): 30.7%
inhibition at 10 µM ([1]; PC-3 (Prostate Cancer), 10 uM single dose, read-out: Growth inhibition %): 51.4%
inhibition at 10 µM ([1]; RPMI-8226 (Leukemia), 10 uM single dose, read-out: Growth inhibition %): 43.6%
inhibition at 10 µM ([1]; RXF 393 (Renal Cancer), 10 uM single dose, read-out: Growth inhibition %): 44.8%
inhibition at 10 µM ([1]; SF-268 (CNS Cancer), 10 uM single dose, read-out: Growth inhibition %): 22%
inhibition at 10 µM ([1]; SF-295 (CNS Cancer), 10 uM single dose, read-out: Growth inhibition %): 45.1%
inhibition at 10 µM ([1]; SF-539 (CNS Cancer), 10 uM single dose, read-out: Growth inhibition %): 30.6%
inhibition at 10 µM ([1]; SK-MEL-2 (Melanoma), 10 uM single dose, read-out: Growth inhibition %): 29.8%
inhibition at 10 µM ([1]; SK-MEL-28 (Melanoma), 10 uM single dose, read-out: Growth inhibition %): 19.4%
inhibition at 10 µM ([1]; SN12C (Renal Cancer), 10 uM single dose, read-out: Growth inhibition %): 45.2%
inhibition at 10 µM ([1]; SNB-19 (CNS Cancer), 10 uM single dose, read-out: Growth inhibition %): 18.5%
inhibition at 10 µM ([1]; SW-620 (Colon Cancer), 10 uM single dose, read-out: Growth inhibition %): 14.1%
inhibition at 10 µM ([1]; U-251, U251 (CNS Cancer), 10 uM single dose, read-out: Growth inhibition %): 25.8%
inhibition at 10 µM ([1]; UACC-62 (Melanoma), 10 uM single dose, read-out: Growth inhibition %): 42%
inhibition at 10 µM ([1]; UACC-257 (Melanoma), 10 uM single dose, read-out: Growth inhibition %): 27.1%
inhibition at 10 µM [2]: 31.1%
inhibition at 10 µM [3]: 30.8%
inhibition at 10 µM (UO-31): 59.4%
inhibition at 10 µM (K-562): 58.3%
inhibition at 10 µM (MOLT-4): 61.6%
inhibition at 10 µM (SR): 59.7%
inhibition at 10 µM (A549/ATCC): 49.9%
inhibition at 10 µM (NCI-H23): 46.8%
inhibition at 10 µM (SK-MEL-5): 61.2%
inhibition at 10 µM (LOX IMVI): 45.8%
inhibition at 10 µM (MCF-7; Homo sapiens, MCF7, 48 h, read-out: cell growth inhibition % (GI %)): 70.3%
cell growth inhibition % (GI %) (MCF-7): 70.03% and 71.12%
inhibition at 10 µM (T-47D): 55.2%
melting point: 249 to 251 °C
IC50 [4]: 25.4 ± 1.23 µM
